Experimental data published in patent EP1205473A1, “VESAMICOL PIPERAZINE DERIVATIVES AND DRUGS CONTAINING THE SAME” (DAIICHI RADIOISOTOPE LABORATORIES, LTD., priority 1999, dated 2001).
Like-named read-outs stand apart in the source and are kept apart here. One block for each compound: values may come before it.

How the values were obtained:
vesamicol receptors [1] = target: T1, vesamicol receptors (Rattus norvegicus, UniProt Q62666); assay: Inhibition experiment: inhibition of binding of radioactive-iodine-labeled DRC140 to P2 fractions; parameters: Synaptic vesicles were extracted and separated from the brain of a rat; from tissue; host or cells: rat brain without cerebellum: P2, crude synaptic vesicles, purified synaptic vesicles
T1 sequence (Q62666 1-530): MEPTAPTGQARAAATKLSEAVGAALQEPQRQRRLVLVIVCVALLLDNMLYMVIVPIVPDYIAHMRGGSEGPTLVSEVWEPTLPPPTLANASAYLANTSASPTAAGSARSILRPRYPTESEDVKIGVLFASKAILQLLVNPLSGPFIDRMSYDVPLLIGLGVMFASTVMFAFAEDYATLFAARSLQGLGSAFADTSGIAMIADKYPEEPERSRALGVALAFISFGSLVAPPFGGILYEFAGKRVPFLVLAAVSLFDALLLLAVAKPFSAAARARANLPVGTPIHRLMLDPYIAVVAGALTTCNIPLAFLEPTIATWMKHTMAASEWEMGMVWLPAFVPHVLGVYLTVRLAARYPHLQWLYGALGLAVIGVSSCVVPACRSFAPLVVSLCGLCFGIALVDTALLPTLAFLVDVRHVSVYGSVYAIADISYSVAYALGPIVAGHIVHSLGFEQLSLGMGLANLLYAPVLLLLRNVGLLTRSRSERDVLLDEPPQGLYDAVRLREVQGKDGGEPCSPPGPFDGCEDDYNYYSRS

vesamicol receptors [2] = target: T1, vesamicol receptors; assay: Receptor binding test: inhibition of I-125 labeled 5-iodobenzo vesamicol binding to brain homogenate; parameters: from tissue; host or cells: rat brain without cerebellum, P2 fraction; species or system Male Wistar rats; conditions: for IC50: Inhibitive concentration at 50% (IC50), Vesamicol receptor, Table 5, incubated three hours at 37°C, no unit printed in table (b19 gives nM for DRC140)
Procedure: (§1) Properties relating to binding of the vesamicol piperazine derivatives of the present invention to various receptors were examined as follows. Specifically, ligands which combine with each receptor were incubated together with homogenates prepared as follows.
To measure affinity of vesamicol receptors, I-125 labeled 5-iodobenzo vesamicol (synthesized and labeled according to Jung et al., J. Med. Chem. 33, 2065-2068, 1990) was added to a brain homogenate prepared as follows. The vesamicol piperazine derivatives synthesized in the Examples were added at various concentrations. The mixture was then incubated for three hours at 37°C.
(§2) B (%) =((1 0 0 × [U])^(∩))/([ I C50 (])^(∩) (+ [U])^(∩)) [formula] wherein B(%) is the proportion of specific binding in the total binding, n indicates a Hill coefficient, and U is the concentration of unbound ligand.
Male Wistar rats were anesthetized with ether and were decapitated. The brains were immediately extracted. The cerebella were removed from the brains. 0.32 M sucrose (containing 4 mM HEPES (pH 7.4)) in an amount of five times the wet amount (weight) of this sample was added. The sample was homogenized by a potter-type homogenizer for 12 strokes while cooling with ice. 0.32 M sucrose in the same amount as the homogenate (total: 10 times the wet amount of the original sample) was added. The suspension thus obtained was centrifuged for 5 minutes at 1,000 x g. The precipitate was removed. The supernatant liquid was centrifuged at 9,200 x g for 15 minutes to separate the precipitate from the supernatant liquid. P2 fractions were suspended in a Tris-HCl buffer (pH 7.4) for binding experiments and stored at -80°C until the start of the binding experiment.

sigma receptors = target: T2, sigma receptors (Cavia porcellus, UniProt Q60492); assay: Receptor binding test: inhibition of tritium-labeled (+) pentazocine binding to brain homogenate; parameters: species or system male guinea pig
T2 construct: The brain was immediately extracted; The cerebellum was removed from the brain; from tissue; host or cells: guinea pig brain without cerebellum, membrane pellet
T2 sequence (Q60492 whole entry): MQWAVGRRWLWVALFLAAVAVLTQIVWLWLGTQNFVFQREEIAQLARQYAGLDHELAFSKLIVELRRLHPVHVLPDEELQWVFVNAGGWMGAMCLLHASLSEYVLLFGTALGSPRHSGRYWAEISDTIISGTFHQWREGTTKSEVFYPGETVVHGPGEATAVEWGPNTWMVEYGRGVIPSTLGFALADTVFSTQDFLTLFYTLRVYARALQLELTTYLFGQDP
Procedure: as §1
To measure affinity to sigma receptors, tritium-labeled (+) pentazocine was added to a brain homogenate prepared as follows. The vesamicol piperazine derivatives synthesized in the Examples were added at various concentrations, and the mixture was incubated for two hours at room temperature.
as §2
A male guinea pig was anesthetized with ether and was decapitated. The brain was immediately extracted. The cerebellum was removed from the brain. 10 mM Tris-sucrose buffer solution (0.32 M sucrose + 10 mM Tris-HCl (pH 7.4)) was added in the amount of 10 ml/g of the tissue. The mixture was homogenized by a potter-type homogenizer for 6-10 strokes. The homogenate was centrifuged at 1,000 x g for 10 minutes at 4°C and the supernatant liquid was collected. The resulting pellets were suspended in the Tris-sucrose buffer solution at the concentration of 2 ml/g, followed by centrifugation at 1,000 x g for 10 minutes at 4°C. The supernatant liquids obtained by the two centrifugation at 1,000 x g were combined and centrifuged at 31,000 x g for 15 minutes at 4°C. The resulting pellets were suspended in a 10 mM Tris-HCl buffer solution (pH 7.4) at a concentration of 3 ml/g of tissue and incubated for 30 minutes at 25°C. After incubation, the suspension was centrifuged at 31,000 x g for 15 minutes at 4°C. The pellets obtained were suspended in a 10 mM Tris-HCl buffer solution (pH 7.4) to make a final concentration of 1.53 ml/g of tissue. The suspension was homogenized by a potter-type homogenizer for 5 strokes. The homogenate was stored at -80°C until the start of the experiment.

[3] = target: T3, serotonin 5-HT1A receptors (Rattus norvegicus, UniProt P19327); assay: Receptor binding test: inhibition of tritium-labeled 8-hydroxy-DPAT binding to brain (hippocampus) homogenate; parameters: species or system Male Wistar rats
T3 construct: The hippocampi were immediately collected from the brains; from tissue; host or cells: rat hippocampus membranes
T3 sequence (P19327 1-422): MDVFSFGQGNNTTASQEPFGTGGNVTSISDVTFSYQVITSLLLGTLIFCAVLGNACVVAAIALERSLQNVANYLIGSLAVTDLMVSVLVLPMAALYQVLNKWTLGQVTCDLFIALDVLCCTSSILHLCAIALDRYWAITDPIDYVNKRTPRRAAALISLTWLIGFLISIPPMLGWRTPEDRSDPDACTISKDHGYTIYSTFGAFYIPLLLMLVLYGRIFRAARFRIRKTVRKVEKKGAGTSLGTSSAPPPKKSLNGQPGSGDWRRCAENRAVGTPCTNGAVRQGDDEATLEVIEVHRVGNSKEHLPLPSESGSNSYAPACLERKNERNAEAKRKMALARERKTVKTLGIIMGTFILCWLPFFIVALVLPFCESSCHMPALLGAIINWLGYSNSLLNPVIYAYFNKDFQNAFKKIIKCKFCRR
Procedure: as §1
To measure affinity to serotonin 5-HT1A receptors, tritium-labeled 8-hydroxy-DPAT was added to a brain homogenate prepared as follows. The vesamicol piperazine derivatives synthesized in the Examples were added at various concentrations, and the mixture was incubated for 30 minutes at 37°C. To measure affinity to serotonin 5-HT2A receptors, tritium-labeled ketanserin was added to a brain homogenate prepared as follows. The vesamicol piperazine derivatives synthesized in the Examples were added at various concentrations, and the mixture was incubated for 15 minutes at 37°C.
as §2
Male Wistar rats were anesthetized with ether and were decapitated and the brains quickly extracted. The hippocampi were immediately collected from the brains. A 40-fold (vol/wt) amount of ice cooled 50 mM Tris-HCl buffer (pH 7.4) was added to the hippocampi. The mixture was homogenized using a potter-type homogenizer. The homogenate was centrifuged at 40,000 x g for 20 minutes. The supernatant liquid was removed and the resulting pellets were suspended in a 40-fold amount of Tris-HCl buffer solution. The suspension was centrifuged and the Tris buffer solution was again added to the pellets. This procedure was repeated twice. The product thus obtained was homogenized using a 40-fold amount of Tris-HCl buffer solution and incubated for 10 minutes at 37°C to remove endogenic 5-HT. The cell membrane was collected by centrifugation, washed twice, and suspended in a 10-fold amount of 50 mM Tris-HCl buffer solution (pH 7.4). The suspension thus obtained was stored at -80°C until the start of the binding experiment.

[4] = target: serotonin 5-HT2A receptors (Rattus norvegicus, UniProt P14842); assay: Receptor binding test: inhibition of tritium-labeled ketanserin binding to brain homogenate; parameters: species or system Male Wistar rats
serotonin 5-HT2A receptors, sequence (P14842 whole entry): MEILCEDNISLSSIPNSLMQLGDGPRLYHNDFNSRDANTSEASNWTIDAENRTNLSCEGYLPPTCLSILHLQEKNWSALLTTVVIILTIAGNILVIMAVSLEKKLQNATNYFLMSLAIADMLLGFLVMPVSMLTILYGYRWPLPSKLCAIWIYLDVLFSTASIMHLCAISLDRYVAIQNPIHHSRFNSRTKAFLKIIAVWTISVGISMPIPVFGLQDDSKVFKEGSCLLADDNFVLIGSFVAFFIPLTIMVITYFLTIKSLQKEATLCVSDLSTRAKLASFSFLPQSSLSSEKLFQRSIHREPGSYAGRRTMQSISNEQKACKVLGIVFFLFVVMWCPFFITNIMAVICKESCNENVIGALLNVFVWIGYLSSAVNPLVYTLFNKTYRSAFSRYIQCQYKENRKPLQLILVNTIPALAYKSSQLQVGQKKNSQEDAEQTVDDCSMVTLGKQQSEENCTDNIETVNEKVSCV

vesamicol receptors [5] = target: T1, vesamicol receptors; assay: Inhibition experiment: inhibition of binding of radioactive-iodine-labeled DRC140 to purified synaptic vesicle fractions; parameters: Synaptic vesicles were extracted and separated from the brain of a rat; from tissue; host or cells: rat brain without cerebellum: P2, crude synaptic vesicles, purified synaptic vesicles; conditions: for inhibitive action on purified synaptic vesicles: result in words
adrenaline α1 receptors = assay: Receptor binding test: inhibition of tritium-labeled prazosin binding to brain homogenate; parameters: species or system Male Wistar rats
vesamicol receptors [6] = target: T1, vesamicol receptors; assay: Saturation experiment of I-125 labeled DRC140 on brain cell fractions (Scatchard plots); type: binding; parameters: Synaptic vesicles were extracted and separated from the brain of a rat; from tissue; host or cells: rat brain without cerebellum: P2, crude synaptic vesicles, purified synaptic vesicles; conditions: at 37°C
[7] = inhibitive concentration at 50% (IC50), Receptor Vesamicol
[8] = Inhibitive concentration at 50% (IC50), Sigma α-1 receptor
[9] = read-out: inhibitive concentration at 50% (IC50), Receptor Sigma-1
[10] = read-out: inhibitive concentration at 50% (IC50), Receptor Alpha-1, Table 9, high purity derivatives, unit inferred

Compound: Cc1ccccc1N1CCN([C@@H]2Cc3c(I)cccc3C[C@H]2O)CC1 (single isomer, unassigned) [DRE342, (-)-trans-5-iodo-2-hydroxy-3-[4-[2-methylphenyl]piperazinyl]tetralin]
IC50 (vesamicol receptors [1]; [7]): 0.56 nM | IC50 (vesamicol receptors [2]): 0.23 nM | IC50 (sigma receptors; [8]): 50 nM | IC50 [3]: 512 nM

Compound: Cc1ccc(C)c(N2CCN([C@@H]3Cc4c(I)cccc4C[C@H]3O)CC2)c1 (single isomer, unassigned) [DRE350, (-)-trans-5-iodo-2-hydroxy-3-[4-[2,5-dimethylphenyl]piperazinyl]tetralin]
IC50 ([4]; read-out: Inhibitive concentration at 50% (IC50), Serotonin receptor 5-HT2A): > 20000 nM | IC50 (vesamicol receptors [1]; [7]): 0.83 nM | IC50 (vesamicol receptors [2]): 0.58 nM | IC50 (sigma receptors; read-out: Inhibitive concentration at 50% (IC50), Sigma α-1 receptor): 1500 nM | IC50 (sigma receptors; [9]): 5550 nM | IC50 ([3]; read-out: Inhibitive concentration at 50% (IC50), Serotonin receptor 5-HT1A): 240 nM

Compound: Cc1ccc(C)c(N2CCN([C@@H]3Cc4c(I)cccc4C[C@H]3O)CC2)c1 (single isomer, unassigned) [DRE351, (+)-trans-5-iodo-2-hydroxy-3-[4-[2,5-dimethylphenyl]piperazinyl]tetralin]
IC50 (vesamicol receptors [1]; [7]): 11.4 nM | IC50 (vesamicol receptors [2]): 7.11 nM | IC50 (sigma receptors; [8]): 4500 nM | IC50 [3]: 664 nM

Compound: OC1CCCCC1N1CCC(c2ccccc2)CC1 (single isomer, unassigned; (-)) [(-)-Vesamicol, 2-(4-phenyl-piperidino)cyclohexanol, reference compound]
IC50 [4]: > 5000 nM | IC50 (vesamicol receptors [1]; IC50 (nM) Average ± S.D): 58.2 ± 17.3 nM | IC50 (vesamicol receptors [1]; [7]): 45.4 nM | IC50 (sigma receptors): 66.5 nM | IC50 (vesamicol receptors [5]): 45.4 ± 3.59 nM | IC50 [3]: > 5000 nM

Compound: O[C@@H]1Cc2cccc(I)c2C[C@H]1N1CCC(c2ccccc2)CC1 [5-iodobenzovesamicol]
IC50 (adrenaline α1 receptors; applicant's own research, read-out: affinity to an α1-receptor (IC50)): 6.74 nM

Compound: O[C@@H]1Cc2cccc(I)c2C[C@H]1N1CCC(c2ccccc2)CC1 [(-)-IBVM, 5-iodobenzovesamicol, reference compound]
IC50 ([4]; read-out: inhibitive concentration at 50% (IC50), Receptor 5-HT2A): > 5000 nM | IC50 (vesamicol receptors [1]; read-out: inhibitive concentration at 50% (IC50), Receptor Vesamicol): 0.32 nM | IC50 (sigma receptors; [9]): 174 nM | IC50 ([3]; read-out: inhibitive concentration at 50% (IC50), Receptor 5-HT1A): 119 nM | IC50 (adrenaline α1 receptors; [10]): 2.61 nM

greater affinity to vesamicol receptors (versus α1-receptor) (vesamicol receptors [2]; ratio of IC50 α1-receptor / vesamicol receptors): 190 times | activity to the vesamicol receptor as high as the activity to the sigma receptor (vesamicol receptors [2]; ratio vesamicol receptor versus sigma receptor): 4,000 times | IC50 (adrenaline α1 receptors; read-out: Inhibitive concentration at 50% (IC50), Adrenaline α1 receptor, Table 5, incubated 30 minutes at 37°C, unit inferred): 402 nM | IC50 (adrenaline α1 receptors; text of disclosure, adrenaline-type nerve system receptor, read-out: IC50 value for α1-receptor): 402 nM | time to reach equilibrium (vesamicol receptors [6]): 3 h
Compound: O[C@@H]1Cc2cccc(I)c2C[C@H]1N1CCN(c2ccccc2)CC1 [DRC140, (-)-trans-5-iodo-2-hydroxy-3-(4-phenyl-1-piperazinyl)tetralin]

Compound: Cc1ccccc1NC(=N)Nc1ccccc1C [DTG, reference compound]
inhibitive action on P2 fractions (vesamicol receptors [1]): weak inhibitive action | IC50 (vesamicol receptors [1]; IC50 (nM) Average ± S.D): 3820 ± 930 nM | IC50 (vesamicol receptors [5]): 4160 ± 251 nM | inhibitive action on purified synaptic vesicles (vesamicol receptors [5]): almost the same degree of weak inhibitive action

IC50 (vesamicol receptors [1]; Table 7, P2 fractions, inhibition of radioactive-iodine-labeled DRC140 binding, Binding site names the inhibitor's own site, read-out: IC50 (nM) Average ± S.D): 1110 ± 187 nM | inhibitive action on P2 fractions (vesamicol receptors [1]; result in words): weak inhibitive action | IC50 (vesamicol receptors [5]; Table 8, purified synaptic vesicle fractions, inhibition of radioactive-iodine-labeled DRC140 binding, read-out: IC50 (nM) Average ± S.D): 1200 ± 43 nM
Compound: O=C(c1ccc(F)cc1)C1CCN(CCn2c(=O)[nH]c3ccccc3c2=O)CC1 [Ketanserin, reference compound]
inhibitive action on purified synaptic vesicles (vesamicol receptors [5]): almost the same degree of weak inhibitive action

IC50 (vesamicol receptors [1]; read-out: inhibitive concentration at 50% (IC50), Receptor Vesamicol, Table 9, high purity derivatives (HPLC purified), I-125 labeled DRC140, P2 fractions, 3 hours at 37°C, unit inferred): 0.89 nM | IC50 (sigma receptors; read-out: inhibitive concentration at 50% (IC50), Receptor Sigma-1, Table 9, high purity derivatives, unit inferred): 4.27 nM | IC50 ([3]; read-out: inhibitive concentration at 50% (IC50), Receptor 5-HT1A, Table 9, high purity derivatives, unit inferred): 16600 nM | IC50 (adrenaline α1 receptors; [10]): 421 nM
Compound: m-(iodobenzyl)trozamicol [(+)-MIBT, reference compound]
